# Measurements published in US6300327A, “Compositions and methods for potentiation of neurotrophin activity” (The University of Southern California, priority 1997, dated 2001).
# B1: rhBDNF: recombinant human brain-derived neurotrophic factor (protein, UniProt P23560 19-247, looked up)
# Neurotrophic factor BDNF …: APMKEANIRGQGGLAYPGVRTHGTLESVNGPKAGSRGLTSLADTFEHVIEELLDEDQKVRPNEENNKDADLYTSRVMLSSQVPLEPPLLFLLEEYKNYLDAANMSMRVRRHSDPARRGELSVCDSISEWVTAADKKTAVDMSGGTVTVLEKVPVSKGQLKQYFYETKCNPMGYTKEGCRGIDKRHWNSQCRTTQSYVRALTMDSKKRIGWRFIRIDTSCVCTLTIKRGR
# Columns and labels:
# [1] = system: PC12 cells; experiment: Neurite outgrowth of PC12 cells; type: cell-based; settings: NT-3 alone
# Experimental: PC12 cells were grown as described earlier [Kaplan et al., 1990, 1991a, b]. To assess effects on neurite outgrowth, cells were incubated for 48 hours with K-252b (50 nM) and NT-3 or NGF (50 ng/ml). Neurites were scored if they were a length of one cell body or more.
# (§1) Experiments on PC12 cells confirmed observations made on primary neuron cultures. Treatment with K-252b stimulated NT-3 induced neurite outgrowth and trk tyrosine phosphorylation in PC12 cells while inhibiting NGF induced effects. PC12 cells were incubated for 48 hours with K-252b (50 nM) and NT-3 or NGF (50 ng/ml). FIG. 4A illustrates the % cells with neurites after 48 hours incubation. Neurites were scored if they were a length of one cell body or more. PC12 cells were subsequently lysed and immunoprecipitated with anti-trk serum. trk proteins were subjected to SDS-PAGE and analyzed by immunoblotting with anti-phosphotyrosine antibodies (FIG. 4B). Lane 1, NT-3 +K-252b; lane 2, NT-3; lane 3, NGF +K-252b; lane 4, NGF. For FIG. 4C, PC12 cells were incubated for 1 hour in K-252b (50 nM or 10 μM) and with NT-3 or NGF for 5 minutes prior to lysis; other methods were the same as described for FIG. 4B. Lane 1, NT-3+10 μM K-252b; lane 2, NT-3±50 nM K-252b; lane 3, NT-3; lane 4, NGF+10 μM K-252b; lane 5, NGF+50 nM K-252b; lane 6, NGF; lane 7, untreated control.
# [2] = system: chick dorsal root ganglia neurons (DRG); experiment: Survival of dissociated chick DRG neurons (embryonic day 9); type: cell-based; settings: growth factor alone, embryonic day 9 DRG cultures
# Experimental: DRGs of embryonic day 9 chicks were dissected and dissociated using enzymatic and mechanical procedures as described in the literature [Rosenthal, A. et al., "Primary Structure and Biological Activity of a Novel Human Neurotrophic Factor," Neuron 4:767-773 (1990)]. 1800 neurons were plated per well in 96-well tissue culture plates pretreated with polyornithine (500 μg/ml) and laminin (10 μg/ml). Cells were incubated for 48 hrs with or without growth factors and the indicated concentrations of K-252b. Phase-bright cells with elaborated neurites 5× the diameter of the cell bodies were then counted.
# Similar to the findings obtained in primary cultures of brain cholinergic neurons, low concentration of K-252b (50 nM) potentiated the survival promoting action of a maximally effective concentration of NT-3 (FIG. 3). Survival of dissociated chick DRG neurons in presence of rhNGF (100 ng/ml) or rhNT-3 (100 ng/ml) and K-252b is illustrated in FIG. 3; concentrations on the horizontal axis are for K-252b. The columns represent means +SEMs. […] High concentrations of K-252b (10 μM) inhibited the action of NGF on sensory neurons, as found for cholinergic neurons (FIG. 3).
# [3] = system: trk; experiment: trk tyrosine phosphorylation in PC12 cells (immunoprecipitation, anti-phosphotyrosine immunoblot); type: cell-based
# Experimental: To measure the status of trk tyrosine phosphorylation, PC12 cells were lysed and immunoprecipitated with anti-trk serum. The trk proteins were subjected to 7.5% SDS-PAGE and analyzed by immunoblotting with anti-phosphotyrosine antibodies as described in detail in the literature [Kaplan, D. R. et al., "PDGF beta receptor stimulates tyrosine phosphorylation of GAP and association of GAP with a signaling complex," Cell 61:125-133 (1990)]. Tyrosine phosphorylation of cellular proteins was assayed by probing Western blots of lysates of PC12 cells incubated with K-252b and NT-3 or NGF with anti-phosphotyrosine antibodies. Phospholipase C gammal was identified in these blots as described elsewhere [Vetter, M.L. et al., "Nerve growth factor rapidly stimulates tyrosine phosphorylation of phospholipase C-gammal by a kinase activity associated with the product of trk protooncogene," Proc. Natl Acad. Sci. USA 88:5650-5654 (1991)].
# as §1
# [4] = system: forebrain cholinergic neurons (cultures of rat basal forebrain); experiment: ChAT activity in primary cultures of fetal rat basal forebrain (septal) cholinergic neurons treated with neurotrophins and K-252 compounds; type: cell-based; settings: for ED50, stimulation of ChAT activity: mean±S.E., n=8; for NT-3 potentiation (ChAT, cholinergic neurons): 200 ng/ml NT-3 and increasing concentrations of compound (FIG. 6)
# Experimental: Recombinant human NGF (rhNGF), BDNF (rhBDNF), and NT-3 (rhNT-3) and K-252b were added to primary cultures of fetal rat brain neurons containing either forebrain cholinergic or midbrain dopaminergic neurons. A broad range of concentrations of K-252b were tested in presence of 50 ng/ml rhNGF, 200 ng/ml rhBDNF and 1 μg/ml rhNT-3, growth factor concentrations producing maximal trophic actions on cholinergic neurons. The trophic action was monitored by measuring the activity of ChAT, a parameter reflecting both survival and transmitter-specific differentiation of cholinergic cells.
# (§2) Primary cultures of fetal rat brain septal and mesencephalic cells were prepared in a heretofore known manner [Knusel et al., supra]. Briefly, defined areas were dissected from fetal rat brains (Wistar, E15-16, Charles River, Mass.). The septal area contained the cholinergic neurons from septum, diagonal band of Broca and nucleus basalis. The ventral mesencephalon containing the dopaminergic neurons of the substantia nigra and the ventral tegmental area was dissected and dissociated mechanically. The cells were plated in 16 mm multiwell plates precoated with polyethyleneimine (1 mg/ml, 37° C., overnight), containing 0.5 ml modified L-15 medium supplemented with 5% heat inactivated horse serum and 0.5% heat inactivated fetal calf serum. Modified L-15 was prepared [Knusel et al., "Selective and Nonselective Stimulation of Central Cholinergic and dopaminergic Development in vitro by Nerve Growth Factor, Basic Fibroblast Growth Factor, Epidermal Growth Factor, Insulin and the Insulin-like Growth Factors I and II," J. Neurosci. 10:558-570 (1990)] by adding various amino acids, vitamins, antibiotics, glucose and NaHCO3 to Leibovitz's L-15 medium (Gibco, Grand Island, N.Y.). Plating densities were 4×10^5 cells/cm^2 for basal forebrain cultures and 3×10^5 cells/cm^2 for mesencephalic cultures. Of these cells, 0.5 to 1% were cholinergic or dopaminergic, respectively. Growth factors were typically added on the second day of culture and the cells were grown for 5 or more days. For ChAT assays tissue was homogenized in 250 μl of 50 mM Tris-HCl buffer, pH 6.0 with 0.3% Triton X-100. [1-^14 C]acetylcoenzyme A (NEN) concentration was 20 μM and specific activity 4.09 Ci/mol. To measure dopamine uptake, cultures were preincubated for 5 min at 37° C. with 250 μl incubation solution (5 mM glucose, 1 mM ascorbic acid in PBS) containing 1 mM pargyline. [^3 H]dopamine (37 Ci/mmol) was then added to give a final concentration of 50 nM and the cultures were incubated for another 15 minutes. Blanks were obtained by incubating cells at 0° C.
# FIG. 1 illustrates levels of ChAT activity in cultures of rat basal forebrain treated with rhNGF, rhBDNF, or rhNT- and K-252b. Growth factors were added on the second day of culture and the cells were grown for 5 days. Growth factor concentrations producing maximal elevations of ChAT activity were used. In FIG. 1, .largecircle. represents the control; .quadrature., 50 ng/ml rhNGF; Δ, 200 ng/ml rhBDNF; and .tangle-soliddn., 1 μg/ml rhNT-3. The ChAT stimulation mediated by all three neurotrophins was inhibited by K-252b at concentrations above 200 nM. […] N=4 per data point. Error bars represent SEMs and were omitted where they would have appeared smaller than the symbol.
# These compounds were accordingly tested for possible NT-3 potentiation at lower concentrations than necessary for NGF inhibition. Culture conditions were as described in Example 1. Cultures were untreated (controls) or treated with 200 ng/ml NT-3 and increasing concentrations of the inhibitors. The findings are shown in FIG. 6, in which "Stau", "K2a", "K2b", "K57", "K58", "K59" represent, respectively, staurosporine, K-252a, K-252b, KT5720, KT5823, and KT5296. […] Staurosporine and KT5296 were ineffective.
# [5] = system: midbrain dopaminergic neurons (cultures of ventral mesencephalon); experiment: Dopamine uptake in primary cultures of fetal rat ventral mesencephalon; type: cell-based; settings: for trophic action on dopaminergic neurons (dopamine uptake): growth factor alone
# Experimental: as §2
# In Table 1, dopamine uptake is given as fmol/min/culture dish. Cultures were grown in 24-well plates for 7 days in L-15 medium with 5% horse and 0.5% fetal bovine serum and treated with growth factors and K-252b from the second day of culture. rhBDNF, 200 ng/ml; des-IGF-1, 1 μg/ml; n=4; *different from respective control group, p <0.01 (Student's t-test). The apparent difference between control cultures grown in presence and absence of K-252b was statistically not significant. The experiment shown is a representative case of a total of 5 independent experiments.
# [6] = system: PC12 pheochromocytoma cells; settings: into neuron-like cells; cited from earlier work
# [7] = system: phosphorylation of selected proteins; settings: cited from earlier work
# [8] = system: PC12 cells; settings: cited from earlier work
# [9] = Cytotoxicity in vitro; type: cell-based
molecule,measurement,setting,value
NT-3: recombinant human neurotrophin-3,neurite outgrowth induced by growth factor alone,[1],low levels
same,promotion of neuronal survival,[2],moderate effect
same,trk tyrosine phosphorylation by growth factor alone,[3]; 48 hours,no phosphorylation was detectable
same,trk tyrosine phosphorylation by growth factor alone,"[3]; acute, 5 minutes",minimal
same,"ED50, stimulation of ChAT activity",[4]; NT-3 + 50 nM K-252b,14.3 ± 1.6 ng/mL
same,"ED50, stimulation of ChAT activity",[4]; NT-3 alone,175 ± 72.6 ng/mL
same,elevation of ChAT activity relative to the NGF-induced elevation,[4]; NT-3 by itself,approximately 20%
same,trophic action on dopaminergic neurons (dopamine uptake),[5],not
NGF: recombinant human nerve growth factor,promotion of neuronal survival,[2],most effective
same,trk tyrosine phosphorylation by growth factor alone,[3]; 48 hours,strongly stimulated
same,trk tyrosine phosphorylation by growth factor alone,"[3]; acute, 5 minutes",pronounced increase
same,trophic action on dopaminergic neurons (dopamine uptake),[5],not
COC(=O)C1(OC)CC2OC1(C)n1c3ccccc3c3c4c(c5c6ccccc6n2c5c31)C(=O)N(C)C4 (stereo not drawn) [KT5823],"NT-3 potentiation (ChAT, cholinergic neurons)",[4],potentiation similar to K-252b
COC(=O)C1(O)CC2OC1(C)n1c3ccccc3c3c4c(c5c6ccccc6n2c5c31)C(=O)NC4 (stereo not drawn) [K-252a],effect on NGF induced morphological transformation of PC12 cells,[6],prevents
same,effect on NGF stimulated phosphorylation of selected proteins,[7]; NGF stimulated,inhibits
same,effect on bFGF or EGF stimulated phosphorylation of selected proteins,[7]; bFGF or EGF stimulated,not
same,effect on binding of 125I-NGF to PC12 cells,[8],does not interfere
same,"NT-3 potentiation (ChAT, cholinergic neurons)",[4],potentiation similar to K-252b
same,effect on trophic action of NGF on cholinergic neurons (ChAT),[4]; relatively high dosages,completely and selectively prevent
same,cytotoxicity,[9],cytotoxic
CCCCCCOC(=O)C1(O)CC2OC1(C)n1c3ccccc3c3c4c(c5c6ccccc6n2c5c31)C(=O)NC4 (stereo not drawn) [KT5720],"NT-3 potentiation (ChAT, cholinergic neurons)",[4],potentiation similar to K-252b
"CN[C@@H]1C[C@H]2O[C@@](C)([C@@H]1OC)n1c3ccccc3c3c4c(c5c6ccccc6n2c5c31)C(=O)NC4 [staurosporine, reference compound]","NT-3 potentiation (ChAT, cholinergic neurons)",[4],ineffective
same,selective inhibition of NGF,[4]; central cholinergic neurons,selectively inhibit NGF
same,cytotoxicity,[9],cytotoxic
B1,"Dopamine uptake, % of Control","[5]; No K-252b, rhBDNF 200 ng/ml or des-IGF-1 1 μg/ml",183%
same,"Dopamine uptake, Mean ± SEM","[5]; No K-252b, rhBDNF 200 ng/ml or des-IGF-1 1 μg/ml, n=4, 7 days",28.0 ± 0.3 fmol/min/culture dish
same,trophic action on dopaminergic neurons (dopamine uptake),[5],trophically acts
